Assay results as given in ChEMBL document CHEMBL4385643, “Design of a brain-penetrant CDK4/6 inhibitor for glioblastoma” (Bioorg Med Chem Lett, 2019).

Columns and labels:
[1] = target: CDK4/Cyclin D3 (Homo sapiens, UniProt P11802)
Description: Inhibition of human full length GST-tagged CDK4 (1 to 303(end) amino acids)/Cyclin D3 (1 to 292(end) amino acids) expressed in baculovirus expression system assessed as inhibition constant using Ulight-4E-BP1 as substrate preincubated for 30 mins followed by substrate addition and incubated for 90 mins by TR-FRET assay

[2] = target: CDK1/Cyclin A (Homo sapiens, UniProt P06493)
Description: Inhibition of human recombinant full length GST-tagged CDK1/Cyclin A2 expressed in sf9 insect cells assessed as inhibition constant using Ulight-4E-BP1 as substrate preincubated for 30 mins followed by substrate addition and incubated for 90 mins by TR-FRET assay

[3] = target: CDK6/cyclin D3 (Homo sapiens, UniProt Q00534)
Description: Inhibition of human full length GST-tagged CDK6 (1 to 326(end) amino acids)/Cyclin D3 (1 to 292(end) amino acids) expressed in baculovirus expression system assessed as inhibition constant using Ulight-4E-BP1 as substrate preincubated for 30 mins followed by substrate addition and incubated for 90 mins by TR-FRET assay

[4] = target: Cyclin-dependent kinase 2/cyclin E1 (Homo sapiens, UniProt P24941); test: Inhibition of human full length GST-tagged CDK2 (1 to 298(end) amino acids)/Cyclin E1 (1 to 410(end) amino acids) expressed in baculovirus expression system assessed as inhibition constant using Ulight-4E-BP1 as substrate preincubated for 30 mins followed by substrate addition and incubated for 90 mins by TR-FRET assay
[5] = system: human MDR1; test: in vitro; settings: dog, MDCK-MDR1
Description: Efflux ratio in gMDCKI cells expressing human MDR1

[6] = Lipophilicity, log D of the compound by microscale shake flask method; type: physicochemical; settings: octanol/water
[7] = system: mouse Bcrp1; test: in vitro; settings: dog
Description: Efflux ratio in MDCK2 expressing mouse bcrp1

CDK6/cyclin D3, sequence (P30281 whole entry): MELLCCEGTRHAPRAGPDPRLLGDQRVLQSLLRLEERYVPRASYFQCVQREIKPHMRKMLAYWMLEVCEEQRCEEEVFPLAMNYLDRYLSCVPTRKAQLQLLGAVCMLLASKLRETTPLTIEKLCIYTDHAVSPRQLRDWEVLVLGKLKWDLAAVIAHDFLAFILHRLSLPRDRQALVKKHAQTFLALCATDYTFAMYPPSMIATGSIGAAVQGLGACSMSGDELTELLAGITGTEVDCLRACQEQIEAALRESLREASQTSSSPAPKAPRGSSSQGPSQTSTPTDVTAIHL
CDK6/cyclin D3, sequence (Q00534 whole entry): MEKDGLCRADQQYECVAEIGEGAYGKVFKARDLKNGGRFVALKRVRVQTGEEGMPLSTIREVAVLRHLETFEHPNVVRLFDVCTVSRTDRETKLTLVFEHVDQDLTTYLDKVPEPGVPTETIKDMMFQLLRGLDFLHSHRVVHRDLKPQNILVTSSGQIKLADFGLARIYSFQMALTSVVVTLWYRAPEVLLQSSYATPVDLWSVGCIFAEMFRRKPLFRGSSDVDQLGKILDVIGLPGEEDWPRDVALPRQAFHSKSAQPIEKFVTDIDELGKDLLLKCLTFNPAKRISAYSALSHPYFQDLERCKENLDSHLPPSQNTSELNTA
CDK1/Cyclin A, sequence (P06493 whole entry): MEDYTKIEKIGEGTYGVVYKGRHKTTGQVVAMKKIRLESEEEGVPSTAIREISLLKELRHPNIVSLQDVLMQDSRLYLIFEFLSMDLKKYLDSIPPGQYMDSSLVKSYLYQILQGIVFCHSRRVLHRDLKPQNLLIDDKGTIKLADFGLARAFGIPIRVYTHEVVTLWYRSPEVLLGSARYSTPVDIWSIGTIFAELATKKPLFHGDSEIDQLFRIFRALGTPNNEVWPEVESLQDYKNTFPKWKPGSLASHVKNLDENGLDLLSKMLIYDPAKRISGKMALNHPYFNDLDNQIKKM
CDK1/Cyclin A, sequence (P20248 whole entry, further chain): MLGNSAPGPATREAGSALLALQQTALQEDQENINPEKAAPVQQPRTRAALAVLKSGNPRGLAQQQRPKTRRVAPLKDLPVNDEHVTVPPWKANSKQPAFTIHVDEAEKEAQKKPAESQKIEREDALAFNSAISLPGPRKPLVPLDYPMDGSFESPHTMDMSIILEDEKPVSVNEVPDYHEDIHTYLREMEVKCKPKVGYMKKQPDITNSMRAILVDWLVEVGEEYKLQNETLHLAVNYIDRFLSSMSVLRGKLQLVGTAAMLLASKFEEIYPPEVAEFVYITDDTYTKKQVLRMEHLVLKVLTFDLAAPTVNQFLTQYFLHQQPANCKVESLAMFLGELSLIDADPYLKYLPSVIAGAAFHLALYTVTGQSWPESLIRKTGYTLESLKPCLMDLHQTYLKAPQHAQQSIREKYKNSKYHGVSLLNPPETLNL
CDK4/Cyclin D3, sequence (P11802 whole entry): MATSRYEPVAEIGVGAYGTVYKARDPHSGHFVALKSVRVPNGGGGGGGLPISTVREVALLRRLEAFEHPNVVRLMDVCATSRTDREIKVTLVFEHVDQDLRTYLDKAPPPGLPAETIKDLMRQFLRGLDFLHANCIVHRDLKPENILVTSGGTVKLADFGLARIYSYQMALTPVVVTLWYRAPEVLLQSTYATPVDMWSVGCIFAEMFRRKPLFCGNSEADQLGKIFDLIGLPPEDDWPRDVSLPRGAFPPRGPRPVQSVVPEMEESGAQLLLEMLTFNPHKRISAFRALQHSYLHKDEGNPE
CDK4/Cyclin D3, sequence (P30281 whole entry, further chain): as the sequence (P30281 whole entry) above

Compound | Ki [1] [nM] | Ki [2] [nM] | Ki [3] [nM] | Ki [4] [nM] | efflux ratio [5] | logD [6] | efflux ratio [7]
C[C@@H]1CCCCn2ncc(-c3nc(Nc4ccc(N5CCOCC5)cn4)ncc3F)c21 | 0.4 | 70 | 7.9 |  |  |  | 
C[C@@H]1CCCn2ncc(-c3nc(Nc4ccc(N5CCN(C)CC5)cn4)ncc3F)c21 | 1.4 | 770 | 19 |  |  |  | 
C[C@@H]1CCCCn2ncc(-c3nc(Nc4ccc(N5CC6(CN(CCCF)C6)C5)cn4)ncc3F)c21 | < 0.3 | 110 | 3.3 |  |  |  | 
CN1CCN(c2ccc(Nc3nccc(-c4cnn5c4CCCC5)n3)nc2)CC1 | 61 | 29000 | 1900 | 15000 |  |  | 
CC(C)c1c(-c2nc(Nc3ccc(N4CCN(C)CC4)cn3)ncc2F)cnn1C | 2.7 | 530 | 32 |  |  |  | 
COCCN1CCC(Nc2nccc(-c3cnn4c3CCCC4)n2)CC1 | 210 | 5200 | 7400 | 7500 |  |  | 
CN1CCN(c2ccc(Nc3ncc(F)c(-c4cnn5c4CCCC5)n3)nc2)CC1 | 3.6 | 2000 | 40 |  |  |  | 
C[C@@H]1CCCCn2ncc(-c3nc(Nc4ccc(N5CCC(N(C)C)CC5)cn4)ncc3F)c21 | 1 | 210 | 10 |  |  |  | 
CC(C)c1n[nH]cc1-c1ccnc(NC2CCCCC2)n1 | 18 | 24 | 450 | 22 |  |  | 
C[C@@H]1CCCCn2ncc(-c3nc(Nc4ccc(C5CCN(C)CC5)cn4)ncc3F)c21 | 0.8 | 280 | 18 |  |  |  | 
CCN1CCN(Cc2ccc(Nc3ncc(F)c(-c4cnn5c4[C@H](C)CCCC5)n3)nc2)CC1 | 1.3 | 630 | 37 |  |  |  | 
C[C@@H]1CCCCn2ncc(-c3nc(Nc4ccc(N5CC6(C5)CN(C5COC5)C6)cn4)ncc3F)c21 | 0.4 | 77 | 4.3 |  |  |  | 
C[C@@H]1CCCCn2ncc(-c3nc(Nc4ccc(N5CC6(CN(C)C6)C5)cn4)ncc3F)c21 | < 0.3 | 63 | 1.7 |  |  |  | 
C[C@@H]1CCCCn2ncc(-c3nc(Nc4ccc(N5CC6(CN(CCF)C6)C5)cn4)ncc3F)c21 | < 0.3 | 52 | 1.6 |  | 2 | 2.8 | 0.9
C[C@H]1CCCn2ncc(-c3nc(Nc4ccc(N5CCN(C)CC5)cn4)ncc3F)c21 | 3.8 | 980 | 38 |  |  |  | 
CN1CCN(c2ccc(Nc3ncc(F)c(-c4cnn5c4CCCCC5)n3)nc2)CC1 | 1.8 | 1300 | 24 |  |  |  | 
COCCN1CCC(Nc2nccc(-c3cn[nH]c3C(C)C)n2)CC1 | 20 | 270 | 720 | 320 |  |  | 
